Results as given in paper PMC7156724, “Potent BRD4 inhibitor suppresses cancer cell-macrophage interaction” (Nature Communications, 2020).
Where “and” joins values, the source holds several entries; their conditions need not be identical. Equal values may be shown once.

Assays:
[1] = test system: human melanoma patient-derived xenograft (PDX); test: Human melanoma patient-derived xenograft (PDX) tumor growth; type: in vivo, NSG mice; details: Fig.3f, 1.5mg/kg, individual animals, in mm³ (unit assumed)
Text: PO, oral administration; QD, once daily; BID, twice daily. b–d Tumor growth curves for A2780 ovarian tumor (n = 5) (b), TMD8 large B cell lymphoma (n = 6) (c), and B16F10 melanoma (n = 5) (d) bearing mice treated with the indicated compounds once daily for 11-21 days. e, f Tumor growth curves for A375 melanoma (n = 6) (e), and patient-derived xenograft (PDX) of melanoma (n = 5) (f) bearing mice treated with the indicated compounds once daily (5 days on, 2 days off) for 21 days. For d–f, NHWD-870 used is NHWD-870-HCl synthesized using Suzuki coupling route. Data are presented as mean ± SEM in (a, b, d, f) and mean + SEM in (c, e). p values were calculated using two-tailed, unpaired t tests. *p < 0.05; **p < 0.01; ***p < 0.001. Source data are provided as a Source Data file.
4–6 weeks old female BALB/c nude mice were used for most experiments, with the exception of 6–8 weeks old female C57BL/6 mice were used for B16F10 experiments, and 6–8 weeks old male BALB/c nude mice and SD rats were used for pharmacokinetic experiments. All animals were purchased from Shanghai SIPPR-Bk Lab Animal Co., Ltd. All animals were housed under a regimen of 12 h light/12 h dark cycles and specific pathogen-free conditions. 5×10^6 NCI-H526, ES-2, MDA-MB231, A2780, A375, B16F10, and TMD-8 cells (0.1 ml) were injected subcutaneously into female nude mice. The melanoma patient-derived xenograft model was derived from a human melanoma sample (BRAF, NARS and NF1 wild type, and p53 mutant) removed from a patient in Xiangya Hospital. Surgically removed tumor fragments were implanted subcutaneously into female NSG mice. When the tumors grew to ~1000 mm^3, they were harvested and cryopreserved or immediately re-implanted for expansion or experiments. Mouse body weight and tumor sizes were measured every 3 days. Once the tumors grew to 150–200 mm^3, mice were treated with the compounds as described in the Figures. 1 × 10^6 A2780 cells (1 ml) were injected into the abdominal cavity of nude mice. Ascitic volume and tumor weight were measured by an electronic balance. All the procedures were evaluated and approved by the Institutional Animal Care and Use Committee of Central South University and Yale University.

A375 melanoma cells = test: AlamarBlue assay, A375; type: cell-based, human; details: for Cellular activity in melanoma cells (A375), alamarBlue: Fig.1g, replicates
Procedure: 3. AlamarBlue assay. AlamarBlue was made by resazurin sodium salt (Sigma, Cat
# 199303) dissolved in PBS.
NCI-H211, MDA-MB231 and A375 cells were plated in 96-well plates at approximately 30% confluence and left overnight to adhere. In the following day, […]
of treatment, 10 μl AlamarBlue reagent (0.3 mg/ml) was added to each well, and after 18h, the florescence intensity in each well was measured using a top-reading fluorescent plate reader with excitation at 530 nm and emission at 590 nm. […]

HIF1 reporter activity = test: HIF1 luciferase reporter assay; type: cell-based, human; details: A2780 and A375 cells, 20% or 1% O2, 24 h
Procedure: Fig. 7 NHWD-870 inhibited CSF1 expression through suppressing BRD4 and HIF1α in tumor cells. a, b Representative western blot analysis of control (Ctrl) and BRD4 knockout (KO) A375 and A2780 cells exposed to 20% or 1% O2 for 24 hours. Selected from three independent experiments. c, d Representative western blot analysis of A375 and A2780 cells treated with DMSO or 25 nM NHWD-870 and exposed to 20% or 1% O2 for 24 h. Selected from three independent experiments. e Relative HIF1 luciferase reporter activity in control (Ctrl), BRD4 knockout (KO), or NHWD-870 treated A375 and A2780 cells exposed to 20% or 1% O2 for 24 h. Data are presented as mean ± SEM from three independent experiments. f RT-qPCR analyses of CSF1 in control (Ctrl), BRD4 knockout (KO), or NHWD-870 treated A375 and A2780 cells exposed to 20% or 1% O2 for 24 hours. Data are presented as mean ± SEM from three independent experiments. g RT-qPCR analyses of HIF1A in A375 or A2780 cells treated with 15 nM NHWD-870 or DMSO control for 24 h. Data are presented as mean ± SEM from three independent experiments. h Genome browser view of BRD4 ChIP-seq peaks on the HIF1A promoter. Shown are BRD4 ChIP and input control of A375 cells (top panel) and BRD4 ChIP of MDA-MB231 cells treated with DMSO or JQ-1 (bottom panel). i BRD4 ChIP-qPCR analyses of the HIF1A promoter in A2780 cells treated with DMSO or NHWD-870 for 72 h. Data are presented as mean ± SEM from three independent experiments. j RT-qPCR analyses of CSF1 in A375 and A2780 cells were transiently transduced with HIF1α, then exposed to 1% O2 for 24 h. Ctrl, Control. Data are presented as mean ± SEM from three independent experiments. k A model showing the effects of NHWD-870 on cancer cell-TAM interaction. NHWD-870 inhibits the proliferation and survival of TAMs partly by inhibiting BRD4 activity, HIF1α expression, and CSF1 secretion by tumor cells, and downregulating CSF1R mediated ERK and PI3K/AKT signaling in TAMs. p values were calculated using two-tailed, unpaired t tests in this figure. *p < 0.05; **p < 0.01; ***p < 0.001. Source data are provided as a Source Data file.
Supplementary Figure 15. […]
Data in (a) and (c-e) are presented as mean ± SEM from 3 independent experiments. p values were calculated using two-tailed, unpaired t tests. **, p<0.01; ***, p<0.001. Source data are provided as a Source […]
All patients had […]
undergone complete cytoreductive surgery.
14. Immunohistochemical staining. Paraffin-embedded implantation samples isolated from peritoneal metastasis of EOC patients (128 cases) were sectioned at a thickness of 4μm. To stain CD68, CSF1 and p-BRD4, the slides were first deparaffinized in xylene and rehydrated with gradient concentrations of alcohol under standard procedures. After rehydration, the slides were immersed in 0.01 mol/L citrate buffer (pH 6.0) and heated (95°C) for 15 min for antigen retrieval.
Then, the samples were incubated with 3% hydrogen peroxide (H2O2) for 10 minutes followed by 10% normal goat serum blocking for 10 minutes. Subsequently, the sections were incubated with rabbit polyclonal anti-human CD68 antibody (dilution 1:100) (sc-20060, Santa Cruz Biotechnology) and anti-human p-BRD4

TAMs = test: Transwell co-culture of pretreated A2780 cells and TAMs with CSF1 or anti-CSF1R antibodies; type: cell-based, mouse; details: co-culture with pretreated A2780 cells, MCSF-1 10ng/ml where added
Procedure: Fig. 6 CSF1/CSF1R signaling is critical for the tumor inhibitory effects of NHWD-870 and CSF1 induced ovarian cancer growth depends on macrophages. a Number of TAMs after treatment with the indicated concentration of CSF1 for 48 h. Data are presented as mean ± SEM from three independent experiments. b–d Schematics of the experiments (b). A2780 cells (pre-treated with DMSO or 100 nM NHWD-870 for 48 h) were seeded into the top chamber (transwell size: 0.4 μm), and TAMs (Mac, 40,000 cells per 24-well) in medium with PBS or 10 ng/ml CSF1 (c), or 50 ng/ml IgG or anti-CSF1R antibodies (d), were seeded into the bottom chamber. Shown are quantification of TAMs (c, d). Data are presented as mean ± SEM from three independent experiments. e Representative western blot analysis of A2780 cells stably transfected with CSF1 or empty vector (EV). Selected from three independent experiments. f Schematics of the animal experiments using an orthotopic mouse OC model, established by intraperitoneally injecting 1 × 10^6 (g–j) or 2 × 10^6 (k–m) human A2780 cells overexpressing CSF1 or control into female recipient nude mice. Mice were then treated with/without liposomal clodronate (LC) for 45 days (g–j) or treated with/without NHWD-870 (PO, QD, 3 mg/kg) for 37 days (k–m). g Increased mouse body weight was measured at the indicated time points (day 0-45 after LC treatment). h–j Net tumor weight (h), ascitic fluid volumes (i) tumor implantations in peritoneum, omentum and pevic cavity (j) were measured at day 45 from LC treatment. k–m Net tumor weight (k), ascitic fluid volumes (l) tumor implantations in peritoneum, omentum and pevic cavity (m) were measured at day 37 after NHWD-870 treatment. For g–m, data are presented as mean ± SEM from five different mice. p values were calculated using two-tailed, unpaired t tests in this figure. n.s, not significant; *p < 0.05; **p < 0.01; and ***p < 0.001. Source data are provided as a Source Data file.
CD45^+CD11b^+F4/80^+ TAMs were isolated from peritoneal metastasis of A2780 tumor-bearing mice and cultured in RPMI-1640 supplemented with 10% FBS, 1% penicillin/streptomycin, and 0–50 ng/ml CSF1 (R&D Systems) as indicated according to standard protocols. In the cancer cell-macrophage co-culture experiments, CSF1 was not added. In the transwell (Corning, pore size, 0.4 μm) co-culture experiments, tumor cells were placed into the upper chamber, and TAMs were seeded into the lower chamber.

Cc1nnn(C)c1-c1cnc2c3c4cnn(C)c4ccc3n([C@H](c3ccccc3)C3CCOCC3)c2c1.Cl [870-HCI]
Tumor volume ([1]; day 0): 0
Tumor volume ([1]; day 3): 76 and 83 and 79 and 110 and 130
Tumor volume ([1]; day 7): 143 and 132 and 174 and 201 and 230
Tumor volume ([1]; day 11): 195 and 185 and 250 and 289 and 310
Tumor volume ([1]; day 15): 264 and 276 and 364 and 396 and 423
Tumor volume ([1]; day 19): 349 and 303 and 474 and 530 and 503
Tumor volume ([1]; day 21): 425 and 403 and 503 and 684 and 603

Cc1sc2c(c1C)C(c1ccc(Cl)cc1)=N[C@@H](CC(=O)Nc1ccc(O)cc1)c1nnc(C)n1-2 [OTX-015]
Cellular activity in melanoma cells (A375), alamarBlue (A375 melanoma cells; concentration(nM) 0.21442): 0.2687 and 0.138
Cellular activity in melanoma cells (A375), alamarBlue (A375 melanoma cells; concentration(nM) 0.31236): 1.399 and 1.862
Cellular activity in melanoma cells (A375), alamarBlue (A375 melanoma cells; concentration(nM) 0.4103): 3 and 0.4387
Cellular activity in melanoma cells (A375), alamarBlue (A375 melanoma cells; concentration(nM) 0.6032): 12.3903 and 10.5044
Cellular activity in melanoma cells (A375), alamarBlue (A375 melanoma cells; concentration(nM) 1.2043): 24.9941 and 17.1565
Cellular activity in melanoma cells (A375), alamarBlue (A375 melanoma cells; concentration(nM) 1.8024): 69.0356 and 72.751
Cellular activity in melanoma cells (A375), alamarBlue (A375 melanoma cells; concentration(nM) 2.4): 91.1738 and 98.6047
Cellular activity in melanoma cells (A375), alamarBlue (A375 melanoma cells; concentration(nM) 3): 100.838 and 100.296
IC50 (A375 melanoma cells; Homo sapiens, A-375, nM printed in b8, the picture prints no unit, read-out: IC50, cellular activity in A375 (alamarBlue)): 34.8 nM
HIF1 reporter activity (HIF1 reporter activity): significantly decreased HIF1 reporter activity

B1: MCSF-1 (protein, UniProt P09603 33-554, looked up)
Macrophage colony-stimulating …: EEVSEYCSHMIGSGHLQSLQRLIDSQMETSCQITFEFVDQEQLKDPVCYLKKAFLLVQDIMEDTMRFRDNTPNAIAIVQLQELSLRLKSCFTKDYEEHDKACVRTFYETPLQLLEKVKNVFNETKNLLDKDWNIFSKNCNNSFAECSSQDVVTKPDCNCLYPKAIPSSDPASVSPHQPLAPSMAPVAGLTWEDSEGTEGSSLLPGEQPLHTVDPGSAKQRPPRSTCQSFEPPETPVVKDSTIGGSPQPRPSVGAFNPGMEDILDSAMGTNWVPEEASGEASEIPVPQGTELSPSRPGGGSMQTEPARPSNFLSASSPLPASAKGQQPADVTGTALPRVGPVRPTGQDWNHTPQKTDHPSALLRDPPEPGSPRISSLRPQGLSNPSTLSAQPQLSRSHSSGSVLPLGELEGRRSTRDRRSPAEPEGGPASEGAARPLPRFNSVPLTDTGHERQSEGSFSPQLQESVFHLLVPSVILVLLAVGGLLFYRWRRRSHQEPQRADSPLEQPEGSPLTQDDRQVELPV
Number of TAMs (Fig.6c) (TAMs; time 0): 5
Number of TAMs (Fig.6c) (TAMs; time 24): 6.1 and 7 and 6.4
Number of TAMs (Fig.6c) (TAMs; time 48): 18.4 and 16.8 and 17.9
Number of TAMs (Fig.6c) (TAMs; time 72): 34.1 and 29.5 and 32.5
